Reference: US10100070B2, “Borate-based base generator, and base-reactive composition comprising such base generator” (FUJIFILM Wako Pure Chemical Corporation, priority 2014, dated 2018)

What was measured:
[1] = Storage stability tests to a base-reactive compound; format: physicochemical; conditions: 0.1 g in 2 g SR-NPG, 1 week at 40° C., viscosity change
[2] = Heat resistance tests (TG-DTA); format: physicochemical; conditions: 10 mg, heated from 30° C. to 500° C. at 10° C./min.
Source text: Thus calculated temperature was used as decomposition initiation temperature to evaluate heat resistance of these compounds (base generators).

[3] = Solubility tests to organic solvents and a base-reactive compound
Procedure: The case where the compounds (base generators) were dissolved into less than 1 mL of the addition amount of the organic solvents or the base-reactive compound was evaluated as [++]; the case where the compounds (base generators) were dissolved into not less than 1 mL and less than 5 mL thereof was evaluated as [+]; the case where the compounds (base generators) were dissolved into not less than 5 mL and less than 10 mL thereof was evaluated as [−]; and the case where the compounds (base generators) were dissolved only into not less than 10 mL thereof was evaluated as [−−].

TG-DTA Decomposition Initiation Temperature (5% weight loss initiation temperature) [2] [°C] | Compound | Storage stability in epoxy [1] | further results
 | 1,3-dimethyl-2-(N,N′,N″,N″-tetramethylguanidino)-4,5-dihydro-3H-imidazolium triphenyl(n-butyl)borate [Comp. Ex. 10] | − | 
280 | 1,3-dimethyl-2-(N′,N′,N″,N″-tetramethylguanidino)-4,5-dihydro-3H-imidazolium triphenyl(n-butyl)borate [Example 4] | ◯ | 
223 | 1-cyclohexyl-3-(4-nitrophenyl)-4,4,5,5-tetramethylbiguanidium triphenyl(n-butyl)borate [Example 9] | ◯ | 
300 | tetrakis(tetramethylguanidino)phosphonium p-tolylethynyl triphenylborate [Example 7] | ◯ | 
 | tetrakis(tetramethylguanidino)phosphonium tetraphenylborate [Comp. Ex. 4] | − | Solubility in EL ([3]; 0.1 g compound, ethyl lactate added gradually at room temperature, visual): −− (dissolved only into not less than 10 mL thereof); Solubility in SR-NPG ([3]; 0.1 g compound, neopentylglycol diglycidyl ether added gradually at room temperature, visual): −− (dissolved only into not less than 10 mL thereof); Solubility in PGMEA ([3]; 0.1 g compound, propyleneglycol monomethylether acetate added gradually at room temperature, visual): −− (dissolved only into not less than 10 mL thereof); Solubility to organic solvents generally used in this field (in words) ([3]; conclusion from Table 7): poor solubility; Solubility to the base-reactive compound (in words) ([3]; conclusion from Table 7): poor solubility

Compound | TG-DTA Decomposition Initiation Temperature (5% weight loss initiation temperature) [2] [°C] | Storage stability in epoxy [1] | further results
CCCC[B-](c1ccccc1)(c1ccccc1)c1ccccc1.CN(C)C(=N[P+](N=C(N(C)C)N(C)C)(N=C(N(C)C)N(C)C)N=C(N(C)C)N(C)C)N(C)C [Example 5, tetrakis(tetramethylguanidino)phosphonium triphenyl(n-butyl)borate] | 318 | ◯ | 
CC(C)NC(=[N+]=C(N(C)C)N(C)C)NC(C)C.Cc1ccc(C#C[B-](c2ccccc2)(c2ccccc2)c2ccccc2)cc1 [Example 6, 1,2-diisopropyl-4,4,5,5-tetramethylbiguanidium p-tolylethynyl triphenylborate] | 185 | ◯ | 
